Experimental findings from patent publication US20260347330A1, “N-METHYL-D-ASPARTATE RECEPTOR (NMDAR) ANTAGONISTS AND USES THEREOF” (Bexson Biomedical, Inc., priority 2022, published 2026) are described below.

For assay [1], the target named is NMDAR. Kind of assay: NMDA receptor [3H]-MK-801 competition radioligand binding in rat forebrain. As to conditions: [3H]-MK-801 1 nM competition, 1 mM glutamate, 0.1 mM glycine, pH 7.4, 2 h ambient, N = 1-4. As to the method: (§1) Rat forebrains from 7-8 week old Sprague-Dawley rats (BioChemed, USA) were homogenized in a buffer containing 10 mM HEPES and 1 mM EDTA (pH 7.4) using a mechanical homogenizer (Janke-Kunkel Ultra-Turrax T25). A 10 mL volume was used per brain for all steps involving suspension of the brain homogenate tissue. The brain homogenate was then centrifuged (15 minutes at 20,000 RPM and 4 ° C). The supernatant was carefully poured off and the pellet was resuspended in fresh 10 mM HEPES and 1 mM EDTA containing buffer. This process was repeated 5 times. Following the 5th centrifugation, the buffer was replaced with a buffer containing 10 mM HEPES (pH 7.4). The homogenate was then incubated in a water bath at 37 ° C in the dark (covered with foil). Centrifugation was then repeated 3 additional times and after resuspending in the HEPES buffer, the final homogenate was aliquoted and stored at −80 ° C until use. Protein concentration of the homogenate was determined by utilizing the Bradford method using Coomassie protein assay reagent (Sigma, USA) with Bovine Serum albumin (Sigma, USA) as a standard.
At the time of the experiment, the homogenate was diluted to a final concentration of […] in 10 mM HEPES buffer, 1 mM glutamate, and 0.1 mM glycine (pH 7.4) and combined with 1 nM (+)-[3H]-MK-801 (Perkin Elmer NET972250UC), unlabeled competitor compounds at varying concentrations, or 30 uM MK-801 to determine non-specific binding, in a total volume of 1 mL in a 96 well plate. The protein homogenate is always added to the wells last. The plates were covered with aluminum foil, and placed on a mechanical shaker (250 RPM) for 2 h at ambient temperature ([…]). After 2 h, the homogenate was collected by vacuum filtration using a Unifilter-96 Cell Harvester (Perkin Elmer) over presoaked UniFilter-96 GF/C P Microplates (Perkin Elmer) and filters were washed with room temperature 10 mM HEPES buffer (pH 7.4) (3×1 mL). The filter plates were dried overnight in a fume hood. The next day, the bound tritium was measured via liquid scintillation counting with […] MicroScint-O (Perkin Elmer) added per well, using a MicroBeta2 Plate Reader with 6-detectors scintillation counter (Perkin Elmer) at 55% efficiency. IC50 value estimates were determined in GraphPad Prism 9.3.1 using non-linear regression (single site fit) with log-concentration plotted against percent specific binding. Ki values were calculated using the equation of Cheng and Prusoff. […] Experiments were performed in duplicate. N=1-4 per compound.

Another assay has as its target T1, hSERT (Homo sapiens, UniProt P31645).
T1 construct: no vendor name is printed for this cell line) RBHSTM-K; host or cells: HEK293
The experiment in a line: SERT [3H]-citalopram competition radioligand binding, hSERT expressing HEK293 cell membranes. The procedure:
Valiscreen Serotonin Transporter (SERT) (Human) Cell Line (HEK293 host cells, Product No: RBHSTM-K) grown in DMEM/F12 media with 10% FBS, 0.1 mg/ml Geneticin, 1% GlutaMAX, and 1% Penicillin-Streptomycin added were used to prepare SERT membrane fractions. Cells were grown in 150 mm dishes and harvested between 70-90% confluency, passages 5-20. Cells were detached using a buffer containing 1 mM HEPES and 2 mM EDTA (pH 7.4). After detachment, the cells were homogenized using a handheld homogenizer, and the lysate was centrifuged (30 minutes at 30,000×G) at 4 ° C The resulting pellet was resuspended in storage buffer containing 20 mM HEPES, 10 mM MgCl2, 0.1 mM EDTA, and 10% sucrose at pH 7.4. Protein concentration was determined via the Bradford method using Coomassie protein assay reagent (Sigma, USA) with Bovine Serum albumin (Sigma, USA) as standard.
Buffer containing 10 mM HEPES, 120 mM NaCl, and 5 mM KCl (pH 7.4) was added to SERT membranes to dilute to a final protein concentration of 5 µg/mL per well. Additionally, 0.5 nM [3H]-Citalopram (Perkin Elmer NET1039250UC) was added, along with unlabeled competitors at various concentrations or […] citalopram for nonspecific binding controls, bringing the total volume to 1 ml in a 96 well plate. SERT membranes were always added last to each well. The plates were covered from light with aluminum foil and incubated at ambient temperature ([…]) and placed on a mechanical shaker (250RPM) for 2 h. After 2 h, SERT protein was captured via vacuum filtration using a Unifilter-96 Cell Harvester (Perkin Elmer) over presoaked UniFilter-96 GF/C P Microplates (Perkin Elmer) and filters were washed with room temperature 10 mM HEPES, 120 mM NaCl, and 5 mM KCl buffer (pH 7.4) (3×1 mL). The filter plates were dried overnight in a fume hood. The next day, the SERT bound tritium was measured via liquid scintillation counting with MicroScint-O (Perkin Elmer), using a MicroBeta2 Plate Reader with 6-detectors scintillation counter (Perkin Elmer) at 55% efficiency. IC50 value estimates were determined in GraphPad Prism 9.3.1 using non-linear regression (single site fit) with log-concentration plotted against percent specific binding. […] For each experiments compounds were run in duplicate. N=1-3 repeats per compound.

Assay [2] has as its target T2, human Dopamine Transporter (Homo sapiens, UniProt Q01959).
T2 construct: host or cells: CHO
The experiment in a line: Human dopamine reuptake transporter (DAT) inhibition functional study, ASP+ uptake in CHO cells. In kind it is cell-based. Conditions: at 10,000 nM, 10 μM ASP+, 1 h, CHO cells stably expressing human DAT. The procedure: CHO cells stably expressing human Dopamine Transporter Protein (Valiscreen® Perkin Elmer RBHDATM-K) were cultured in 150 mm Tissue Culture dishes (Cell Treat 229651) at 37 ° C and 5% CO2. Ham's F-12 Nutrient Mix (Gibco, USA) was supplemented with 10% dialyzed FBS (Gibco, USA), 100 µg/ml Geneticin (Gibco, USA), and 100 units/ml Penicillin and Streptomycin (Gibco, USA) as the culture media. Cells were maintained on a consistent splitting and assay schedule and utilized until passage 30 (no change in control experiments were observed up to this point).
Cells were detached from their growth dishes using Trypsin-EDTA (0.25%) (Gibco, USA) at 70-80% confluency. The cells were counted and diluted in culture media to a density of 300,000 cells/mL. 200 µl of this mixture was added to each well of a clear bottom, black-walled 96 well plate (Coming 3603, USA). Plates were incubated in the laminar flow hood for one hour prior to being placed in the cell culture incubator in order to encourage even cell distribution across the entire well surface.
The next day, Krebs-Ringer HEPES (KRH) Buffer pH 7.4 was prepared (10 mM HEPES, 130 mM NaCl, 1.3 mM KCl, 2.2 mM CaCl2, 1.2 mM MgSO4, 1.2 mM KH2PO4) and titrated with 6N NaOH. This buffer was stored in a 4 ° C refrigerator for up to 4 days (after which it was discarded). Additionally, a solution containing KRH buffer and 330 µM Trypan Blue (Sigma T6146-25G), a solution of 20 mM ASP+(MedChem Express, NJ, USA) dissolved in DMSO, were both prepared. The 20 mM DMSO stock of ASP+ was diluted to a working concentration of 40 µM in KRH buffer. DMSO solutions of 40 mM GBR-12935 dihydrochloride (MedChem Express, NJ, USA) and 40 mM test compounds were also prepared. DMSO solutions of test compounds were then diluted to a range of […]-40 μM in KRH Buffer with 1% additional DMSO added to provide consistent DMSO concentration in all samples. […] The final DMSO concentration in each well was 0.3%. […] KRH buffer with DMSO “vehicle control” served as the total fluorescence control to represent the maximum amount of substrate uptake without DAT transporter inhibition.
At the time of assay, cell media was carefully removed from the wells via pipette aspiration. 100 μL of KRH buffer was then added to all wells. Both controls, non-specific and total fluorescence stock solutions were then added to the plate (50 µL of either 400 µM GBR-12935 or KRH DMSO buffer respectively). Additionally, GBR-12935 and test compounds were added to the plate ([…] for each sample). The 10,000 nM concentration of test compound was run in triplicate wells. Next, […] ASP+(final concentration of 10 μM) was added to each well initiating the experiment. Cells were placed in the cell culture incubator for one hour, at which point 20 µL of 330 µM Trypan Blue was added to each well to quench extracellular fluorescence. The cells were then placed in the microplate reader (BioTek Synergy Neo 2), using Gen5 Ver 3.11 software. The reader was preheated to 37 ° C and following a brief orbital shake, intracellular fluorescence was measured using a fluorescence intensity reading. Intracellular ASP+ was excited at 430 nm and emission read at 510 nm via a bottom read using the extended gain settings and high lamp energy setting.

In assay [3] the target is NMDAR. Kind of assay: Homologous binding experiments with MK-801. As to conditions: rat forebrain. The procedure: as §1, with “The homogenate was then incubated in a water bath at 37 ° C in the dark (covered with foil). Centrifugation was then repeated 3 additional times and after resuspending in the HEPES buffer, the final homogenate was aliquoted and stored at −80 ° C until use.” left out
At the time of the experiment, the homogenate was diluted to a final concentration of […] in 10 mM HEPES buffer, 1 mM glutamate, and 0.1 mM glycine (pH 7.4) and combined with 1 nM (+)-[3H]-MK-801 (Perkin Elmer NET972250UC), unlabeled competitor compounds at varying concentrations, or 30 uM MK-801 to determine non-specific binding, in a total volume of 1 mL in a 96 well plate. […] IC50 value estimates were determined in GraphPad Prism 9.3.1 using non-linear regression (single site fit) with log-concentration plotted against percent specific binding. […]

The mark [4] stands for this setting: 0.5 nM [3H]-citalopram competition, hSERT HEK293 membranes, pH 7.4, 2 h ambient, N = 1, read-out: SERT pKi (converted).

The structures appear in SMILES notation. Read-outs that look alike come from different tables or passages of the source. Where only a bound is given, the exact number is not on record here.

T1 sequence (P31645 whole entry): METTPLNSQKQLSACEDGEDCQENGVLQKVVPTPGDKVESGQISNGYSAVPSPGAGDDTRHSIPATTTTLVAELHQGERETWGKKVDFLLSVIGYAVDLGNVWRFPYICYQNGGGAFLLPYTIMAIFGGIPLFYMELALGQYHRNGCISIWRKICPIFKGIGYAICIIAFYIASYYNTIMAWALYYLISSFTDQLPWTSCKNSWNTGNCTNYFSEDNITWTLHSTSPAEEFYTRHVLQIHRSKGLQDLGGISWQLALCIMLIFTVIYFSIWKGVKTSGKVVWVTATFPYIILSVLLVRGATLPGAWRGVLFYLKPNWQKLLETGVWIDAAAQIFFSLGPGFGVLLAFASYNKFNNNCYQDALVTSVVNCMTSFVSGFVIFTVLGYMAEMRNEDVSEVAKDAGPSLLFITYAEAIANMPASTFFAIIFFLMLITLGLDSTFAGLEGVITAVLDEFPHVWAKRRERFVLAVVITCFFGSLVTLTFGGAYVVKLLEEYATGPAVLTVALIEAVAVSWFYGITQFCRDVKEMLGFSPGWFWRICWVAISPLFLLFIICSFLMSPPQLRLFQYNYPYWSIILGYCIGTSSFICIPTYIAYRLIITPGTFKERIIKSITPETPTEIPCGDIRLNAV
T2 sequence (Q01959 whole entry): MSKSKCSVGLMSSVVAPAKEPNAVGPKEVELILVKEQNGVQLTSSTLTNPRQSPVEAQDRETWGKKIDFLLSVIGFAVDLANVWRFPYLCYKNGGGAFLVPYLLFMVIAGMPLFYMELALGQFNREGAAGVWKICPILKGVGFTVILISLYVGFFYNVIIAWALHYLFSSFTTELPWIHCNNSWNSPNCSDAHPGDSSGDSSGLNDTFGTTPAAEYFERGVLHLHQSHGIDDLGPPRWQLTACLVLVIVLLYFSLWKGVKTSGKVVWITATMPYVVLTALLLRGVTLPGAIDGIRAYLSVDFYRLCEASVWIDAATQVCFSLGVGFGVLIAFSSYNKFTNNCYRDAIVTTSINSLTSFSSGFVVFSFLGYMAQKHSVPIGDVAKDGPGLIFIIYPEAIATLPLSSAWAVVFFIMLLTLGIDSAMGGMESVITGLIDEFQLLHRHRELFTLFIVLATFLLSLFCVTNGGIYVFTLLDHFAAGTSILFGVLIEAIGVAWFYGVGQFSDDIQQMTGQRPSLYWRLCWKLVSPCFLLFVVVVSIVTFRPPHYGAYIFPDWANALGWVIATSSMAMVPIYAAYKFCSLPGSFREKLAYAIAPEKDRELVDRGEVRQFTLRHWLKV

On to `NC(c1ccccc1Cl)C1CCCC1` (stereo not shown) [Compound 29, (2-chlorophenyl)(cyclopentyl)methanamine], for which the “NMDAR binding affinity pKi (mean ± SEM)” value at NMDAR [1] stood at 5.47 ± 0.030. In addition, the IC50 (commonly the concentration that inhibits the measured activity by half) at hSERT is above 10000 nM. The inhibition (in general, the relative decrease from the control value, in per cent) at 10 µM in assay [2] was found to be 10.3%.

On to `NC(c1ccccc1)(C1CCCC1)C1CC1` (stereo not shown) [Compound 5, Cyclopentyl(cyclopropyl)(phenyl)methanamine], for which the “NMDAR binding affinity pKi (mean ± SEM)” value at NMDAR [1] is 6.23 ± 0.046. The half-inhibitory concentration (IC50) on hSERT is above 10000 nM. The inhibition at 10 µM in assay [2] was 1.3%.

As for `CC(C)NC(C)(c1ccccc1)C1CCCC1` (stereo not shown) [Compound 19, N-(1-cyclopentyl-1-phenylethyl)propan-2-amine], at NMDAR [1], the “NMDAR binding affinity pKi (mean ± SEM)” value was determined as 7.34 ± 0.041. On hSERT (setting [4]), the Ki was 151 nM. Further, the inhibition at 10 µM in assay [2] came out at 39.2%.

Turning to `CCC(C)NC(C)(c1ccccc1)C1CCCC1` (stereo not shown) [Compound 20, N-(1-cyclopentyl-1-phenylethyl)butan-2-amine], at NMDAR [1], the “NMDAR binding affinity pKi (mean ± SEM)” value is listed as 7.35 ± 0.075. At hSERT, this compound had a Ki of 2450 nM. Besides, in assay [2], the inhibition at 10 µM worked out at 56.7%.

Turning to `CC(N)(c1ccccc1)C1CCCCC1` (stereo not shown) [Compound 11, 1-cyclohexyl-1-phenylethan-1-amine], the “NMDAR binding affinity pKi (mean ± SEM)” value at NMDAR [1] is on record as 6.09 ± 0.120. For the same compound, the IC50 at hSERT is above 10000 nM. For the same compound, the inhibition at 10 µM in assay [2] was found to be 11.7%.

For `CNC(C)(c1ccccc1)C1CCCC1` (stereo not shown) [Compound 15, 1-cyclopentyl-N-methyl-1-phenylethan-1-amine], the “NMDAR binding affinity pKi (mean ± SEM)” value at NMDAR [1] was determined as 6.56 ± 0.064. The same compound had a Ki on hSERT of 501 nM. Besides, the inhibition at 10 µM in assay [2] is 18.2%.

Turning to `NC(CC1CCC1)(c1ccccc1)C1CCCC1` (stereo not shown) [Compound 9, 2-cyclobutyl-1-cyclopentyl-1-phenylethan-1-amine], the “NMDAR binding affinity pKi (mean ± SEM)” value on NMDAR [1] is 5.80 ± 0.095. At hSERT, the half-inhibitory concentration (IC50) was above 10000 nM. Besides, in assay [2], the inhibition at 10 µM was -4%.

On to `CC(c1ccccc1)(C1CCCCC1)N1CCCCC1` (stereo not shown) [Compound 23, 1-(1-cyclohexyl-1-phenylethyl)piperidine], for which, on NMDAR [1], the “NMDAR binding affinity pKi (mean ± SEM)” value is recorded as 5.52 ± .118. Further, the Ki at hSERT (setting [4]) is 2630 nM. Further, in assay [2], the inhibition at 10 µM worked out at 71.6%.

For `CC(N)(c1ccccc1)C1CCCC1` (stereo not shown) [Compound 3, 1-cyclopentyl-1-phenylethan-1-amine], the “NMDAR binding affinity pKi (mean ± SEM)” value at NMDAR [1] came to 7.11 ± 0.041. At hSERT, the IC50 was above 10000 nM. The inhibition at 10 µM in assay [2] was found to be 16.8%.

As for `CCC(N)(c1ccccc1)C1CCCC1` (stereo not shown) [Compound 4, 1-cyclopentyl-1-phenylpropan-1-amine], on NMDAR [1], the “NMDAR binding affinity pKi (mean ± SEM)” value stood at 6.64 ± 0.101. Also, the 50% inhibitory concentration (IC50) at hSERT was above 10000 nM. The inhibition at 10 µM in assay [2] was found to be 24.3%.

For the compound `C[C@]12N[C@H](Cc3ccccc31)c1ccccc12` [MK-801], the dissociation constant (Kd) (commonly the concentration at which binding is half-saturated) on NMDAR [3] amounted to 1.67 nM.

As to `CCNC(C)(c1ccccc1)C1CCCC1` (stereo not shown) [Compound 16, 1-cyclopentyl-N-ethyl-1-phenylethan-1-amine], on NMDAR [1], the “NMDAR binding affinity pKi (mean ± SEM)” value is reported as 6.93 ± 0.073. The Ki at hSERT (setting [4]) was 1120 nM. In addition, the inhibition at 10 µM in assay [2] turned out to be 16%.

Turning to `C=CCC(N)(c1ccccc1)C1CCCC1` (stereo not shown) [Compound 6, 1-cyclopentyl-1-phenylbut-3-en-1-amine], the “NMDAR binding affinity pKi (mean ± SEM)” value at NMDAR [1] is 5.89 ± 0.072. The same compound had a Ki at hSERT of 3160 nM. Also, the inhibition at 10 µM in assay [2] was determined as 23.1%.
